Measured values reported in PubChem BioAssay (NCI).
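Five concentrations, 48 hours, 96-well plates. GI50 marks 50% less growth. TGI denotes the concentration required for complete inhibition of growth.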

Key:
Assay in all cases: inhibition of tumour cell growth, NCI panel, 48 h
[1] = system: RPMI-8226 leukemia
[2] = system: HOP-62 NSCLC
[3] = system: NCI-H23 lung
[4] = system: LOX IMVI melanoma
[5] = system: NCI-H460 lung
[6] = system: NCI-H226 lung
[7] = system: SK-MEL-2 melanoma
[8] = system: SNB-19 CNS
[9] = system: SF-539 CNS
[10] = system: ACHN renal
[11] = system: OVCAR-8 ovarian
[12] = system: PC-3 prostate
[13] = system: EKVX NSCLC
[14] = system: MOLT-4 leukemia
[15] = system: COLO 205 colon
[16] = system: TK-10 renal
[17] = system: SF-268 CNS
[18] = system: HS 578T breast
[19] = system: MDA-MB-435
[20] = system: M14 melanoma
[21] = system: T-47D breast
[22] = system: IGROV1 ovarian
[23] = system: SN12C renal
[24] = system: SK-MEL-5 melanoma
[25] = system: NCI-H522 lung
[26] = system: A549 NSCLC
[27] = system: MCF7 breast
[28] = system: CCRF-CEM leukemia
[29] = system: HL-60(TB) leukemia
[30] = system: HCT-116 colon
[31] = system: DU-145 prostate
[32] = system: OVCAR-3 ovarian
[33] = system: HT29 colon
[34] = system: NCI/ADR-RES ovarian
[35] = system: UO-31 renal
[36] = system: HCT-15 colon
[37] = system: MDA-MB-231 breast
[38] = system: K-562 leukemia
[39] = system: UACC-257 melanoma
[40] = system: RXF 393 renal
[41] = system: SK-MEL-28 melanoma
[42] = system: HOP-92 NSCLC
[43] = system: KM12 colon
[44] = system: OVCAR-5 ovarian
[45] = system: UACC-62 melanoma
[46] = system: SW-620 colon
[47] = system: HCC-2998 colon
[48] = system: SF-295 CNS
[49] = system: CAKI-1 renal
[50] = system: U251 CNS
[51] = system: 786-0 renal

## CCN(CC)CCOc1ccc(/C=C2\C[C@H]3[C@@H]4CC=C5C[C@@H](OC(C)=O)CC[C@]5(C)[C@H]4CC[C@]3(C)[C@H]2OC(C)=O)cc1OC
[1]
  GI50: 1400 nM
  TGI: 24.2 µM
[2]
  GI50: 10.1 µM
  TGI: 19.5 µM
[3]
  GI50: 7.96 µM
  TGI: 16.1 µM
[4]
  GI50: 18.1 µM
  TGI: > 50 µM
[5]
  GI50: 7.6 µM
  TGI: 34.6 µM
[6]
  GI50: 11.3 µM
  TGI: 31.7 µM
[7]
  GI50: 19.2 µM
  TGI: > 50 µM
[8]
  GI50: 11.8 µM
  TGI: 30.1 µM
[9]
  GI50: 8.59 µM
  TGI: 16 µM
[10]
  GI50: 9.19 µM
  TGI: 19.2 µM
[11]
  GI50: 11.4 µM
  TGI: 22.7 µM
[12]
  GI50: 7.68 µM
  TGI: 21.3 µM
[13]
  GI50: 6.84 µM
  TGI: 14.5 µM
[14]
  GI50: 1400 nM
  TGI: 20.6 µM
[15]
  GI50: 19.6 µM
  TGI: > 50 µM
[16]
  GI50: 9.67 µM
  TGI: 20.5 µM
[17]
  GI50: 8.34 µM
  TGI: 19.8 µM
[18]
  GI50: 10.6 µM
  TGI: 22.4 µM
[19]
  GI50: 11 µM
  TGI: 21.7 µM
[20]
  GI50: 7.62 µM
  TGI: 17.2 µM
[21]
  GI50: 16.3 µM
  TGI: 48.1 µM
[22]
  GI50: 14.9 µM
  TGI: > 50 µM
[23]
  GI50: 9.06 µM
  TGI: 21.3 µM
[24]
  GI50: 5.39 µM
  TGI: 17 µM
[25]
  GI50: 17.4 µM
  TGI: > 50 µM
[26]
  GI50: 9.86 µM
  TGI: 19.6 µM
[27]
  GI50: 12.8 µM
  TGI: > 50 µM
[28]
  GI50: 361 nM
  TGI: 6.77 µM
[29]
  GI50: 9.57 µM
  TGI: 19.5 µM
[30]
  GI50: 9.76 µM
  TGI: 18.6 µM
[31]
  GI50: 5.84 µM
  TGI: 12.2 µM
[32]
  GI50: 10.3 µM
  TGI: 22.1 µM
[33]
  GI50: 14.8 µM
  TGI: > 50 µM
[34]
  GI50: 11.1 µM
  TGI: 22.3 µM
[35]
  GI50: 11.6 µM
  TGI: 27 µM
[36]
  GI50: 7.38 µM
  TGI: > 50 µM
[37]
  GI50: 14.1 µM
  TGI: 31.8 µM
[38]
  GI50: 8.17 µM
  TGI: 28.4 µM
[39]
  GI50: 10.6 µM
  TGI: 20 µM
[40]
  GI50: 8.96 µM
  TGI: 20.7 µM
[41]
  GI50: 12.4 µM
  TGI: > 50 µM
[42]
  GI50: 5.95 µM
  TGI: 14.7 µM
[43]
  GI50: 9.65 µM
  TGI: 21.4 µM
[44]
  GI50: 9.3 µM
  TGI: 18 µM
[45]
  GI50: 11 µM
  TGI: 24.8 µM
[46]
  GI50: 16.8 µM
  TGI: > 50 µM
[47]
  GI50: 5.34 µM
  TGI: 12.5 µM
[48]
  GI50: 12.2 µM
  TGI: 24.3 µM
[49]
  GI50: 9.21 µM
  TGI: 18.6 µM
[50]
  GI50: 10.3 µM
  TGI: 26.2 µM
[51]
  GI50: 9.66 µM
  TGI: 18.7 µM
